# Patent publication US20090181963A1, “3H-[1,2,3]TRIAZOLO[4,5-D]PYRIMIDINE COMPOUNDS, THEIR USE AS mTOR KINASE AND PI3 KINASE INHIBITORS, AND THEIR [sequence]” (Wyeth, priority 2008, published 2009)
# Experiments:
# PI3 Kinase α = PI3 Kinase α (Homo sapiens, UniProt P42336); experiment: Fluorescence polarization assay for PI3K (PI3 Kinase α); type: biochemical; conditions: diC8-PI(4,5)P2 substrate, 25 μM ATP, one hour at 25° C.
# PI3 Kinase γ = PI3 Kinase γ (Homo sapiens, UniProt P48736); experiment: Fluorescence polarization assay for PI3K (PI3 Kinase γ); type: biochemical; conditions: diC8-PI(4,5)P2 substrate, 25 μM ATP, one hour at 25° C.
# PI3 Kinase γ, sequence (P48736 whole entry): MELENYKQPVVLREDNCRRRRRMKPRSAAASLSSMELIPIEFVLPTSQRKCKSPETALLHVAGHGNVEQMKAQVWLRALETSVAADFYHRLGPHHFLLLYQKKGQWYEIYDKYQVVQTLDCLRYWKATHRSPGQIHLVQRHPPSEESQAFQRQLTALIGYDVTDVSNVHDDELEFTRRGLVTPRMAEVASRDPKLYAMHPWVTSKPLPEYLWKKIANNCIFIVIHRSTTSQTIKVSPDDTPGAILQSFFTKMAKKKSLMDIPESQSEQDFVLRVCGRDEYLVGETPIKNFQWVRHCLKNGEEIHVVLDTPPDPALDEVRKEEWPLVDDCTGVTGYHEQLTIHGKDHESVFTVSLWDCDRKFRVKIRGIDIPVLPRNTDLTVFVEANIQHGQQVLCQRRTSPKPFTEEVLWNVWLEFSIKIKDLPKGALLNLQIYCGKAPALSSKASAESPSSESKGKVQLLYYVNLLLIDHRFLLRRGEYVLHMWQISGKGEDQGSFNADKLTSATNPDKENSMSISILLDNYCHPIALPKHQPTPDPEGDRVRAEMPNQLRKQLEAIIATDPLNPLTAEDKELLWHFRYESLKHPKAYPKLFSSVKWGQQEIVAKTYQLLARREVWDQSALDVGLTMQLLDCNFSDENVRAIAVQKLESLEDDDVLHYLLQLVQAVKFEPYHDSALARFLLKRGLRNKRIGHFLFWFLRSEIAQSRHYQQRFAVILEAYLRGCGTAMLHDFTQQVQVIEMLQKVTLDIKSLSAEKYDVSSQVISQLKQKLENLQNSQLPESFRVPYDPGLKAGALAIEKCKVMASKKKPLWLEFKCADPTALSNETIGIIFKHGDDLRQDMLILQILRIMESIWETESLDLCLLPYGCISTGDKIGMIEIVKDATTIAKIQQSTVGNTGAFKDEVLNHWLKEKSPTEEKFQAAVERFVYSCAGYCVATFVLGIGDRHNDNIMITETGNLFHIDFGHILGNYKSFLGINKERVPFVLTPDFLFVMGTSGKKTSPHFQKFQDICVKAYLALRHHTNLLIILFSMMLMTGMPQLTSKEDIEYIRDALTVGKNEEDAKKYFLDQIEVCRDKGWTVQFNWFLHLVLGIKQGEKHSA
# Procedure: Nunc 384 well black polypropylene fluorescent plates were used for PI3K assays. Reactions were quenched by the addition of EDTA to a final concentration of 10 μM. Final reaction volumes were 10 ml. […] Reactions were allowed to proceed for one hour at 25° C. After I hour, GST-tagged GRP1 (general receptor for phosphoinositides) PH domain fusion protein was added to a final concentration of 100 nM, and BODIPY-TMRI(1,3,4,5)P4 (Echelon) was also added to a final concentration of 5 nM. Final sample volumes were 25 μl with a final DMSO concentration of 0.8%. Assay Plates were read on PerkinElmer Envision plate readers with appropriate filters for Tamra [BODIPY-TMRI(1,3,4,5)P4]. Data obtained were used to calculate enzymatic activity and enzyme inhibition by inhibitor compounds.
# PI3 Kinase α, sequence (P42336 whole entry): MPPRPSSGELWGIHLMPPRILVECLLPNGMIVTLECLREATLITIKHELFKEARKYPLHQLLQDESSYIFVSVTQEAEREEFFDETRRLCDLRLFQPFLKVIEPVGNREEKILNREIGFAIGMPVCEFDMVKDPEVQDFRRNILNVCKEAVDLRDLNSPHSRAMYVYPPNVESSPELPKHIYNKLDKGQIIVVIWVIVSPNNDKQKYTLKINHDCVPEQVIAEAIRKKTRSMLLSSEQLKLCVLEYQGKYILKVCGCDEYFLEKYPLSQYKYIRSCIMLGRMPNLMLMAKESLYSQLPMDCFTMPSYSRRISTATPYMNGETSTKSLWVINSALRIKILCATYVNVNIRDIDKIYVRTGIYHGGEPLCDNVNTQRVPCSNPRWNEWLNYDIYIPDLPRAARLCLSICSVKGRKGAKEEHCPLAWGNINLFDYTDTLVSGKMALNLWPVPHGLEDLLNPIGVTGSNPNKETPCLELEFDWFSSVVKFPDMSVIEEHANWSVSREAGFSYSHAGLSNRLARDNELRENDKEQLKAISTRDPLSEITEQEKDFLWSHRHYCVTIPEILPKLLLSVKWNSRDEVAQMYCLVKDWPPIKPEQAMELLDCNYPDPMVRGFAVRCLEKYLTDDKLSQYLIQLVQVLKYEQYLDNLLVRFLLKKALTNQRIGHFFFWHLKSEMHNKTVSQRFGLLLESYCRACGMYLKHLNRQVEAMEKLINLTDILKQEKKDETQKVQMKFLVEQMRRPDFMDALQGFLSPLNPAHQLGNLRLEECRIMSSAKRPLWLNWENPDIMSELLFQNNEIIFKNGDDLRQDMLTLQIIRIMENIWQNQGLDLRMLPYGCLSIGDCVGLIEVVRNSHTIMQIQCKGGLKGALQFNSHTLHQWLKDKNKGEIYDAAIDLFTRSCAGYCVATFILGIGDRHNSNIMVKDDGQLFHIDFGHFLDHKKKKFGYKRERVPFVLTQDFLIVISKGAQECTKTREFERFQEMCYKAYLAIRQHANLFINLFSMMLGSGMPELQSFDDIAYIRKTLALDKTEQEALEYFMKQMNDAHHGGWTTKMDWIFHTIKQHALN
# PI3 Kinase α, sequence (P27986 whole entry partner): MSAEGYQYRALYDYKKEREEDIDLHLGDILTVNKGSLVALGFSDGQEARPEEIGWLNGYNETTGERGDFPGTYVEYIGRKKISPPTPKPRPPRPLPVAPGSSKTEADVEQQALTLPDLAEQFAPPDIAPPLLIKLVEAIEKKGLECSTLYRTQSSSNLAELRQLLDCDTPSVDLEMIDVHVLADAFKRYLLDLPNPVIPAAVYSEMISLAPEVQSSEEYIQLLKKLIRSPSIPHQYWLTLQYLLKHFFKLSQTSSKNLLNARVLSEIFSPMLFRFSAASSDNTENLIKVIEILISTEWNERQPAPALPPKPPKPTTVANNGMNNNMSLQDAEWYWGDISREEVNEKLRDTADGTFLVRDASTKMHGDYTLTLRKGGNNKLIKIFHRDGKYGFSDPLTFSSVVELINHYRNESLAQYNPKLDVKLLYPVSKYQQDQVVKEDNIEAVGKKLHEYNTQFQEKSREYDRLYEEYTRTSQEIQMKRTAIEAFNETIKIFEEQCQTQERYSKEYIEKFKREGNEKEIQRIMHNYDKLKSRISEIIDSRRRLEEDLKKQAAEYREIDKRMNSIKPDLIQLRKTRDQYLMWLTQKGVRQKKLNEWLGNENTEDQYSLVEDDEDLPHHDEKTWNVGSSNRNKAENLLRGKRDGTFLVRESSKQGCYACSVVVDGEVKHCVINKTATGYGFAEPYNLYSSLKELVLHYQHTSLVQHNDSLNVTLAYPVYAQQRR
SMILES,IC50 (PI3 Kinase α) [nM],IC50 (PI3 Kinase γ) [nM]
"O=C(NCc1ccco1)c1ccc(Cn2nnc3c(N4CCOCC4)nc(-c4cccc(O)c4)nc32)cc1 [Example 230, N-(2-furylmethyl)-4-{[5-(3-hydroxyphenyl)-7-morpholin-4-yl-3H-[1,2,3]triazolo[4,5-d]pyrimidin-3-yl]methyl}benzamide]",118,938
"CCn1nnc2c(N3CCOCC3)nc(-c3ccc(NC(=O)NC4CCN(C(=O)OCc5ccccc5)CC4)cc3)nc21 [Example 65, benzyl 4-({[4-(3-ethyl-7-morpholin-4-yl-3H-[1,2,3]triazolo[4,5-d]pyrimidin-5-yl)phenyl]carbamoyl}amino)piperidine-1-carboxylate]",5630,1800
"CC(=O)NCCNC(=O)c1ccc(Cn2nnc3c(N4CCOCC4)nc(-c4cccc(O)c4)nc32)cc1 [Example 210, N-(2-acetamidoethyl)-4-{[5-(3-hydroxyphenyl)-7-morpholin-4-yl-3H-[1,2,3]triazolo[4,5-d]pyrimidin-3-yl]methyl}benzamide]",692,782
"CN(C)CCNC(=O)Nc1ccc(-c2nc(N3CCOCC3)c3nnn(C4CCN(Cc5ccc[nH]5)CC4)c3n2)cc1 [Example 161, 1-(4-(3-(1-((1H-pyrrol-2-yl)methyl)piperidin-4-yl)-7-morpholino-3H-[1,2,3]triazolo[4,5-d]pyrimidin-5-yl)phenyl)-3-(2-(dimethylamino)ethyl)urea]",80,286
"CN(C)CCNC(=O)Nc1ccc(-c2nc(N3CCOCC3)c3nnn(C4CCN(Cc5ccc(Cl)cc5F)CC4)c3n2)cc1 [Example 156, 1-(4-(3-(1-(4-chloro-2-fluorobenzyl)piperidin-4-yl)-7-morpholino-3H-[1,2,3]triazolo[4,5-d]pyrimidin-5-yl)phenyl)-3-(2-(dimethylamino)ethyl)urea]",170,557
"O=C(Cc1ccccc1)N1CCN(CCn2nnc3c(N4CCOCC4)nc(-c4cccc(O)c4)nc32)CC1 [Example 104, 3-(7-morpholin-4-yl-3-{2-[4-(phenylacetyl)piperazin-1-yl]ethyl}-3H-[1,2,3]triazolo[4,5-d]pyrimidin-5-yl)phenol]",1170,3030
"O=C(Nc1ccncc1)Nc1ccc(-c2nc(N3CCOCC3)c3nnn(C4CCNCC4)c3n2)cc1 [Example 167, 1-[4-(7-morpholin-4-yl-3-piperidin-4-yl-3H-[1,2,3]triazolo[4,5-d]pyrimidin-5-yl)phenyl]-3-pyridin-4-ylurea]",9,91.5
"O=C(NCCc1cnc[nH]1)c1ccc(Cn2nnc3c(N4CCOCC4)nc(-c4cccc(O)c4)nc32)cc1 [Example 231, 4-{[5-(3-hydroxyphenyl)-7-morpholin-4-yl-3H-[1,2,3]triazolo[4,5-d]pyrimidin-3-yl]methyl}-N-[2-(1H-imidazol-5-yl)ethyl]benzamide]",60,2300
"CCn1nnc2c(N3CCOCC3)nc(-c3ccc(NC(=O)Nc4ccncc4)cc3)nc21 [Example 33, 1-[4-(3-ethyl-7-morpholin-4-yl-3H-[1,2,3]triazolo[4,5-d]pyrimidin-5-yl)phenyl]-3-pyridin-4-ylurea]",3,19
"CN(C)CCNC(=O)c1cccc(-n2nnc3c(N4CCOCC4)nc(-c4cccc(O)c4)nc32)c1 [Example 122, N-[2-(dimethylamino)ethyl]-3-[5-(3-hydroxyphenyl)-7-morpholin-4-yl-3H-[1,2,3]triazolo[4,5-d]pyrimidin-3-yl]benzamide]",56.5,260
"CC(C)(C)OC(=O)N1CCC(NC(=O)c2ccc(Cn3nnc4c(N5CCOCC5)nc(-c5cccc(O)c5)nc43)cc2)CC1 [Example 208, tert-butyl 4-[(4-{[5-(3-hydroxyphenyl)-7-morpholin-4-yl-3H-[1,2,3]triazolo[4,5-d]pyrimidin-3-yl]methyl}benzoyl)amino]piperidine-1-carboxylate]",122,1360
"NC(=O)Cn1nnc2c(N3CCOCC3)nc(-c3cccc(CO)c3)nc21 [Example 237, 2-{5-[3-(hydroxymethyl)phenyl]-7-morpholin-4-yl-3H-[1,2,3]triazolo[4,5-d]pyrimidin-3-yl}acetamide]",460,2590
"CCn1nnc2c(N3CCOC[C@@H]3C)nc(-c3ccc(NC(=O)Nc4ccncc4)cc3)nc21 [Example 71, (S)-1-(4-(3-ethyl-7-(3-methylmorpholino)-3H-[1,2,3]triazolo[4,5-d]pyrimidin-5-yl)phenyl)-3-(pyridin-4-yl)urea]",7,55.5
"Oc1cccc(-c2nc(N3CCOCC3)c3nnn(C4CN(Cc5ccc(F)nc5)C4)c3n2)c1 [Example 128, 3-(3-{1-[(6-fluoropyridin-3-yl)methyl]azetidin-3-yl}-7-morpholin-4-yl-3H-[1,2,3]triazolo[4,5-d]pyrimidin-5-yl)phenol]",164,1100
"CC(C)(C)OC(=O)N1CCC(n2nnc3c(N4CCOCC4)nc(-c4ccc(NC(=O)Nc5cccnc5)cc4)nc32)CC1 [Example 150, tert-butyl 4-(7-morpholin-4-yl-5-{4-[(pyridin-3-ylcarbamoyl)amino]phenyl}-3H-[1,2,3]triazolo[4,5-d]pyrimidin-3-yl)piperidine-1-carboxylate]",21.5,223
"CN(C)CCNC(=O)Nc1ccc(-c2nc(N3CCOCC3)c3nnn(C4CCN(Cc5ccccc5)CC4)c3n2)cc1 [Example 4, 1-{4-[3-(1-benzylpiperidin-4-yl)-7-morpholin-4-yl-3H-[1,2,3]triazolo[4,5-d]pyrimidin-5-yl]phenyl}-3-[2-(dimethylamino)ethyl]urea]",66,204
"Nc1ccc(-c2nc(N3CCOCC3)c3nnn(C4CC4)c3n2)cc1 [Example 77, 4-(3-cyclopropyl-7-morpholino-3H-[1,2,3]triazolo[4,5-d]pyrimidin-5-yl)aniline]",1840,8000
"CCn1nnc2c(N3CCOCC3)nc(-c3ccc(NC(=O)Nc4ccc(C(=O)N5CCN(c6ccccn6)CC5)cc4)cc3)nc21 [Example 58, 1-[4-(3-ethyl-7-morpholin-4-yl-3H-[1,2,3]triazolo[4,5-d]pyrimidin-5-yl)phenyl]-3-{4-[(4-pyridin-2-ylpiperazin-1-yl)carbonyl]phenyl}urea]",2.5,14
"Oc1cccc(-c2nc(N3CCOCC3)c3nnn(CCN4CCN(Cc5ccc[nH]5)CC4)c3n2)c1 [Example 112, 3-(7-morpholin-4-yl-3-{2-[4-(1H-pyrrol-2-ylmethyl)piperazin-1-yl]ethyl}-3H-[1,2,3]triazolo[4,5-d]pyrimidin-5-yl)phenol]",154,1020
"CNCCNC(=O)Nc1ccc(-c2nc(N3CCOCC3)c3nnn(CC(F)(F)F)c3n2)cc1 [Example 140, 1-[2-(methylamino)ethyl]-3-{4-[7-morpholin-4-yl-3-(2,2,2-trifluoroethyl)-3H-[1,2,3]triazolo[4,5-d]pyrimidin-5-yl]phenyl}urea]",26.5,118
"CC(C)(C)OC(=O)N1CC(n2nnc3c(N4CCOCC4)nc(-c4cccc(O)c4)nc32)C1 [Example 124, tert-butyl 3-[5-(3-hydroxyphenyl)-7-morpholin-4-yl-3H-[1,2,3]triazolo[4,5-d]pyrimidin-3-yl]azetidine-1-carboxylate]",108,890
"CCn1nnc2c(N3CCOC[C@@H]3C)nc(-c3ccc(NC(=O)Nc4ccc(N5CCN(C)CC5)cc4)cc3)nc21 [Example 76, (S)-1-(4-(3-ethyl-7-(3-methylmorpholino)-3H-[1,2,3]triazolo[4,5-d]pyrimidin-5-yl)phenyl)-3-(4-(4-methylpiperazin-1-yl)phenyl)urea]",5,32
"O=C(Nc1ccccc1)Nc1ccc(-c2nc(N3CCOCC3)c3nnn(CC4CNC4)c3n2)cc1 [Example 189, 1-{4-[3-(azetidin-3-ylmethyl)-7-morpholin-4-yl-3H-[1,2,3]triazolo[4,5-d]pyrimidin-5-yl]phenyl}-3-phenylurea]",8,28
"CC(C)(C)OC(=O)Cn1nnc2c(N3CCOCC3)nc(-c3ccc(NC(=O)Nc4ccncc4)cc3)nc21 [Example 234, tert-butyl (7-morpholin-4-yl-5-{4-[(pyridin-4-ylcarbamoyl)amino]phenyl}-3H-[1,2,3]triazolo[4,5-d]pyrimidin-3-yl)acetate]",74,173
"CN(C)CCNC(=O)Nc1ccc(-c2nc(N3CCOCC3)c3nnn(C4CCN(Cc5ccc(F)cc5)CC4)c3n2)cc1 [Example 153, 1-(2-(dimethylamino)ethyl)-3-(4-(3-(1-(4-fluorobenzyl)piperidin-4-yl)-7-morpholino-3H-[1,2,3]triazolo[4,5-d]pyrimidin-5-yl)phenyl)urea]",146,176
"CC(C)(C)OC(=O)N1CCC(n2nnc3c(N4CCOCC4)nc(-c4cnc(N)nc4)nc32)CC1 [Example 148, tert-butyl 4-[5-(2-aminopyrimidin-5-yl)-7-morpholin-4-yl-3H-[1,2,3]triazolo[4,5-d]pyrimidin-3-yl]piperidine-1-carboxylate]",111,1400
"CNC(=O)Nc1ccc(-c2nc(N3CCOCC3)c3nnn(C(C)C)c3n2)cc1 [Example 91, 1-[4-(3-isopropyl-7-morpholin-4-yl-3H-[1,2,3]triazolo[4,5-d]pyrimidin-5-yl)-phenyl]-3-methyl-urea]",41.5,409
"O=C(Nc1ccncc1)Nc1ccc(-c2nc(N3CCOCC3)c3nnn(C4CCOCC4)c3n2)cc1 [Example 198, 1-{4-[7-morpholin-4-yl-3-(tetrahydro-2H-pyran-4-yl)-3H-[1,2,3]triazolo[4,5-d]pyrimidin-5-yl]phenyl}-3-pyridin-4-ylurea]",10,43
"CN(C)CCNC(=O)Nc1ccc(-c2nc(N3CCOCC3)c3nnn(C4CCN(Cc5ccc(F)nc5)CC4)c3n2)cc1 [Example 157, 1-(2-(dimethylamino)ethyl)-3-(4-(3-(1-((6-fluoropyridin-3-yl)methyl)piperidin-4-yl)-7-morpholino-3H-[1,2,3]triazolo[4,5-d]pyrimidin-5-yl)phenyl)urea]",61,144
